Source: patent US9486434B2, “Method for delivery and use of isothiocyanates for prophylaxis and/or therapy of bladder cancer” (Health Research Inc., priority 2010, dated 2016)
Where two headings read alike, the source gives them in different places.

What was measured:
UM-UC-3 cells [1] = test: Wright-Giemsa staining for mitotic figures, UM-UC-3 cells; format: cell-based, human; conditions: 24 h, compared with G2/M by flow cytometry
Description: (§1) FIG. 4. Effect of AITC on mitosis, tubulin expression and apoptosis in human bladder cancer UM-UC-3 cells. Cells were treated with vehicle or AITC for 24 h (each numerical value is mean±SD). A. Flow cytometry analysis for cell cycle arrest. B. Wright-Giemsa staining for counting mitotic figures. Arrows point to cells in mitosis or mitotic catastrophe. C. Immunofluorescent staining of microtubules (green color) and DNA staining with DAPI (blue color). D. Western blotting of tubulins (GAPDH as a loading control). E. Loss of mitochondrial transmembrane potential (Δψm) measured by flow cytometry. F. Western blotting of caspase-9 and caspase-3 (GAPDH as a loading control). G. Apoptotic cells (TUNEL cells) measured by flow cytometry. Cells in F and G were co-treated with or without 20 microM Z-LEHD-FMK (a caspase-9 inhibitor).

tubulin = test: Tubulin polymerization in vitro assay; format: biochemical; conditions: result not shown
UM-UC-3 cells [2] = test: Mitochondria-mediated apoptosis in UM-UC-3 cells (Δψm, cytochrome c, TUNEL); format: cell-based, human
Description: as §1

[3] = Storage stability at room temperature; format: physicochemical; conditions: data not shown
[4] = Dissociation of NAC-AITC in phosphate buffer (HPLC); format: physicochemical; conditions: pH 7.4, 37° C.
Description: FIG. 11. Dissociation of NAC-AITC. NAC-AITC at 100 μM was freshly prepared in 20 mM sodium phosphate buffer (pH 7.4) containing 1% DMSO and incubated at 37° C. for 0, 0.5, 1, 2, 3, 4, 5 and 24 h. At each time point, an aliquot of the solution was analyzed for remaining NAC-AITC by HPLC. Each value is a mean±SD (n=3).
Measurement of dissociation of NAC-AITC. The assay was based on a known protocol. Briefly, a solution of NAC-AITC was prepared as rapidly as possible by dilution of 0.2 ml of 5 mM NAC-AITC freshly prepared in 20 mM sodium phosphate buffer (pH 7.4): DMSO (1:1) with 20 mM sodium phosphate buffer (pH 7.4) to 10 ml, resulting in a 0.1 mM NAC-AITC solution in 1% DMSO. An aliquot (0.05 ml) was immediately analyzed by HPLC; the remainder of the solution was incubated at 37° C. on a shaker, and an aliquot (0.05 ml) was analyzed by HPLC at different time points up to 24 h. The HPLC condition was the same as used in the urine analysis described above. A plot of the conjugate peak area remaining versus time was generated to determine the half-time of decomposition.

24-h urinary recovery = format: in vivo; conditions: female, F344, rat, urine, po, 300 μmol/kg, single oral dose 300 μmol/kg
Description: Measurement of pharmacokinetic profiles of AITC and NAC-AITC. The experiment was carried out in female F344 rats since these animals were used in the rat bladder cancer model described above. Groups of three to five rats (8-9 weeks of age) were given a single oral dose of AITC, NAC-AITC or vehicles. AITC was administered in 0.5 ml of soy oil per rat, whereas NACAITC was dissolved in DMSO and diluted with water and administered in 0.2 ml volume (5% DMSO) per rat. The rats were immediately transferred to metabolism cages (one rat per cage), with free access to food and water, for urine collection over four consecutive periods of 0-1.5, 1.5-3, 3-6 and 6-24 h. […]
AITC and NAC-AITC contents in the plasma and urine were determined using the high-performance liquid chromatography (HPLC)-based cyclocondensation assay, and are expressed as AITC equivalent or NAC-AITC equivalent. […]
To specifically measure urinary levels of NAC-AITC, groups of five rats were dosed orally with either AITC or NAC-AITC at 300 μmol/kg and immediately moved to metabolism cages (one rat per cage) for 24 h urine collection. […] The compounds were monitored at both 230 nm (AITC) and 254 nm (its metabolites). […] The fraction corresponding to NAC-AITC was collected and quantified by the cyclocondensation assay; its identity was confirmed by infusion electrospray ionization mass spectrometry.

Row | stability when kept dry [3] | half-time of dissociation [4] | dose excreted (24-h urinary recovery; HPLC fraction, read-out: 24-h urinary recovery, Recovered as NAC-AITC, % of adminstered dose) | dose excreted (24-h urinary recovery; read-out: 24-h urinary recovery, Recovered as NAC-AITC, % of total recovery) | Compound | arrest in mitosis (UM-UC-3 cells [1]) | rate of tubulin polymerization (tubulin) | TUNEL-positive cells (UM-UC-3 cells [2]; 24 h, flow cytometry) | mitochondrial transmembrane potential (UM-UC-3 cells [2]; 24 h, flow cytometry) | cytochrome c release (UM-UC-3 cells [2]; result not shown)
1 | – | – | – | – | C=CCN=C=S [AITC, allyl isothiocyanate] | arrested cells almost exclusively in mitosis | no effect | formation of TUNEL-positive cells | caused a loss of mitochondrial transmembrane potential | release of cytochrome c from mitochondria to cytoplasm
2 | at least 16 months | ~12 h | 47.3 ± 1.8% | 83.3% | C=CCNC(=S)SC[C@H](NC(C)=O)C(=O)O [NAC-AITC, N-acetyl-S—(N-allylthiocarbamoyl)cysteine] | – | – | – | – | –
